Experiments:
Adenosine receptor A1 = molecular target: T1, Adenosine receptor A1 (Rattus norvegicus, UniProt P25099); assay: Binding affinity towards Adenosine A1 receptor of rat cerebral cortex using [3H]-DPCPX as radioligand
T1 sequence (P25099 whole entry): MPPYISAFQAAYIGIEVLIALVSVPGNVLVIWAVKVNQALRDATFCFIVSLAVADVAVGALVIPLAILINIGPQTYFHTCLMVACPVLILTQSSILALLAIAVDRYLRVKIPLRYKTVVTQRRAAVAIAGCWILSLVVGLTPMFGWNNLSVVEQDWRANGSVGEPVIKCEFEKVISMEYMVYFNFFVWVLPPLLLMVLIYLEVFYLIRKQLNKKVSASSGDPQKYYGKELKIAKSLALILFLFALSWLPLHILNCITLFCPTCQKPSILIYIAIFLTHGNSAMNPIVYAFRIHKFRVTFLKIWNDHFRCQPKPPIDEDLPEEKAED

Adenosine receptor A2a = Adenosine receptor A2a (Rattus norvegicus, UniProt P30543); assay: Binding affinity towards Adenosine A2A receptor of rat brain tissues using [3H]ZM-241385 as radioligand
Sequence of Adenosine receptor A2a (P30543 whole entry): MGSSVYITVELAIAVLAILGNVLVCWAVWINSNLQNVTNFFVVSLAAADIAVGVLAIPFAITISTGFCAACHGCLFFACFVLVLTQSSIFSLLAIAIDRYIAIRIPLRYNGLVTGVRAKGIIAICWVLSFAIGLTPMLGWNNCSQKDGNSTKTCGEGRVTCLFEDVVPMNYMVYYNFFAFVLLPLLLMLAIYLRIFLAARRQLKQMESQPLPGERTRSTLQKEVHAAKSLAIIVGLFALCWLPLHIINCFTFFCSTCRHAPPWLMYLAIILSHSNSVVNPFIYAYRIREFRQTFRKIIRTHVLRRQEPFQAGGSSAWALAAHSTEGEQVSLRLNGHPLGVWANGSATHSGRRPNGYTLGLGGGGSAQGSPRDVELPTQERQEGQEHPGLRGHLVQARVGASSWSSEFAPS

SMILES | Ki (Adenosine receptor A1) [nM] | Ki (Adenosine receptor A2a) [nM]
Nc1nc(C#CCC2CCCCC2)cn2nc(-c3ccco3)nc12 | 680 | 280
Nc1nc(C#CCOc2cccnc2)cn2nc(-c3ccco3)nc12 | 110 | 92
Nc1nc(C#CC(O)C2(O)CCCC2)cn2nc(-c3ccco3)nc12 (centres undefined) | 72 | 30
CC(C)C(O)(C#Cc1cn2nc(-c3ccco3)nc2c(N)n1)C(C)C | 8 | 7
CCC(O)(C#Cc1cn2nc(-c3ccco3)nc2c(N)n1)CC | 33 | 9
Nc1nc(C#CC(O)c2ccccc2)cn2nc(-c3ccco3)nc12 (centres undefined) | 2400 | 340
Nc1nc(C#CC(O)(c2ccccc2)C(F)(F)F)cn2nc(-c3ccco3)nc12 (centres undefined) | 2200 | 74
CC(O)(C#Cc1cn2nc(-c3ccco3)nc2c(N)n1)c1csc2ccccc12 (centres undefined) | 340 | 33
CC(O)(C#Cc1cn2nc(-c3ccco3)nc2c(N)n1)c1ccc([N+]2=CC=NC2)cc1 (centres undefined) | 110 | 33
Nc1nc(C#CC2(N)CCCCC2)cn2nc(-c3ccco3)nc12 | 35 | 210
CC(O)(C#Cc1cn2nc(-c3ccco3)nc2c(N)n1)c1ccccc1 (centres undefined) | 41 | 12
CC(C#Cc1cn2nc(-c3ccco3)nc2c(N)n1)OC(C)(C)C (centres undefined) | 96 | 37
Nc1nc(C#CC(O)C2(O)CCC2)cn2nc(-c3ccco3)nc12 (centres undefined) | 2.5 | 12
Nc1nc(C#CCOc2ccc(F)c(Cl)c2)cn2nc(-c3ccco3)nc12 | 4300 | 310
Cn1nc(OCC#Cc2cn3nc(-c4ccco4)nc3c(N)n2)cc1C(F)(F)F | 1800 | 89
CN(C)c1ccc(C(O)(C#Cc2cn3nc(-c4ccco4)nc3c(N)n2)C(F)(F)F)cc1 (centres undefined) | – | 1100
CC(O)(C#Cc1cn2nc(-c3ccco3)nc2c(N)n1)Cc1ccncc1 (centres undefined) | 100 | 1.1
Nc1nc(C#Cc2ccc(F)cc2F)cn2nc(-c3ccco3)nc12 | – | > 1000
CC(O)(C#Cc1cn2nc(-c3ccco3)nc2c(N)n1)c1ccncc1 (centres undefined) | 170 | 25
Nc1nc(C#CCO)cn2nc(-c3ccco3)nc12 | > 500 | > 500
CC(O)(C#Cc1cn2nc(-c3ccco3)nc2c(N)n1)c1cccc(C(F)(F)F)c1F (centres undefined) | – | 1600
Nc1nc(C#CCOc2ccccc2)cn2nc(-c3ccco3)nc12 | 530 | 390
CC(O)(C#Cc1cn2nc(-c3ccco3)nc2c(N)n1)c1ccc(O)cc1 (centres undefined) | 66 | 42
Nc1nc(C#CC(O)c2csc3ccccc23)cn2nc(-c3ccco3)nc12 (centres undefined) | 73 | 260
Nc1nc(C#CC(O)C2(O)CCCCC2)cn2nc(-c3ccco3)nc12 (centres undefined) | 11 | 7.3
CC(C)CCC(C)(O)C#Cc1cn2nc(-c3ccco3)nc2c(N)n1 (centres undefined) | 24 | 3.7

From ChEMBL document CHEMBL1144261, “Synthesis of alkyne derivatives of a novel triazolopyrazine as A(2A) adenosine receptor antagonists” (Bioorg Med Chem Lett, 2005)
